According to patent US7923465B2, “Cannabinoid receptor ligands, pharmaceutical compositions containing them, and process for their preparation” (priority 2005, dated 2011):

Assays:
[1] = target: hCB1 (Homo sapiens, UniProt P21554); assay: In vitro binding assay using hCB1-CHO membranes, [3H]-CP-55,940 displacement (Protocol II); parameters: expressed in transfected cells; host or cells: CHO (hCB1-CHO, generated in-house)
Protocol: II. Protocol for In Vitro Assay Using hCB1-CHO Membranes
The reaction was set up in a total volume of 200 μl in PEI (Poly(ethyleneimine)) (0.2%) precoated Millipore GFB (Glass Fibre-B) filter plates. 1 mM stocks of test compounds were prepared in DMSO and tested at a final concentration of 300 nM. The non-specific binding was determined by 0.5 μM CP-55, 940. […] The assay mixture (with or without the test compound) was incubated at 37° C. for 1 hour. The reaction was stopped by rapid filtration under vacuum and the radioactivity on the filters was measured by liquid scintillation counting.

[2] = target: hCB2 (Homo sapiens, UniProt P34972); assay: In vitro binding assay using hCB2-CHO membranes, [3H]-CP-55,940 displacement (Protocol IV); parameters: expressed in transfected cells; host or cells: CHO (hCB2-CHO, generated in-house); conditions: hCB2-CHO membranes, [3H]-CP-55,940 displacement
Chain of hCB2 (P34972 whole entry): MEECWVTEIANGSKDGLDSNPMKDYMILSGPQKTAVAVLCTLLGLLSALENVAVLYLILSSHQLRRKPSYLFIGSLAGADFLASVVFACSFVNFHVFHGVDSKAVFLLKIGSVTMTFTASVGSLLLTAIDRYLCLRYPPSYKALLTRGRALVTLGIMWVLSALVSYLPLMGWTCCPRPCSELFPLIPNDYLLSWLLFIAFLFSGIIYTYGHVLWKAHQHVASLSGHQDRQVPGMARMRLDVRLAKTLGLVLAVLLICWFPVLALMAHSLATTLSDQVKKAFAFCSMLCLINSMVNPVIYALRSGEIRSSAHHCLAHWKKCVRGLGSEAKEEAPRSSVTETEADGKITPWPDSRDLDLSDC
Summary of the method: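 Displacement of [3H]-CP-55,940 (0.75 nM) from membranes of CHO cells expressing human CB2 (25-50 μg) was measured in Tris-BSA buffer pH 7.4 with 5 mM MgCl2, 1 mM EDTA, 0.1% BSA, 1 h at 30 °C. Test compounds were at 300 nM final; nonspecific binding defined with 0.5 μM CP-55,940. Values are % displacement of specific binding.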

[3] = target: CB1 (Rattus norvegicus, UniProt P20272); assay: Rat CB1 receptor binding using brain membrane, [3H]SR141716A displacement (Protocol I); parameters: CB1 receptor present in a rat brain membrane preparation; from tissue; host or cells: rat brain membrane; conditions: rat brain membrane, [3H]SR141716A displacement
Chain of CB1 (P20272 whole entry): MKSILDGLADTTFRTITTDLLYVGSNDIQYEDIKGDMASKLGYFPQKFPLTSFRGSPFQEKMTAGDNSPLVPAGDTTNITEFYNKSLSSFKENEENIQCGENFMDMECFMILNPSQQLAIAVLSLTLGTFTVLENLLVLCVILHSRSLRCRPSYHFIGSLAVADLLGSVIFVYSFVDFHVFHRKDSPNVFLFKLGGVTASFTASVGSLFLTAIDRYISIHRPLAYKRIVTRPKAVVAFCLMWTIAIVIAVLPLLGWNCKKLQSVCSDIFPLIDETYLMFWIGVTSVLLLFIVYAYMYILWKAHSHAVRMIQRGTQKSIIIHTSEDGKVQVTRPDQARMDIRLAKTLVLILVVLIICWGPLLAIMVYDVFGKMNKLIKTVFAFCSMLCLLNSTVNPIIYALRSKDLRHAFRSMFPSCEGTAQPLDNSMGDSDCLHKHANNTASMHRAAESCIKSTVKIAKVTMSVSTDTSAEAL

Chain of hCB1 (P21554 whole entry): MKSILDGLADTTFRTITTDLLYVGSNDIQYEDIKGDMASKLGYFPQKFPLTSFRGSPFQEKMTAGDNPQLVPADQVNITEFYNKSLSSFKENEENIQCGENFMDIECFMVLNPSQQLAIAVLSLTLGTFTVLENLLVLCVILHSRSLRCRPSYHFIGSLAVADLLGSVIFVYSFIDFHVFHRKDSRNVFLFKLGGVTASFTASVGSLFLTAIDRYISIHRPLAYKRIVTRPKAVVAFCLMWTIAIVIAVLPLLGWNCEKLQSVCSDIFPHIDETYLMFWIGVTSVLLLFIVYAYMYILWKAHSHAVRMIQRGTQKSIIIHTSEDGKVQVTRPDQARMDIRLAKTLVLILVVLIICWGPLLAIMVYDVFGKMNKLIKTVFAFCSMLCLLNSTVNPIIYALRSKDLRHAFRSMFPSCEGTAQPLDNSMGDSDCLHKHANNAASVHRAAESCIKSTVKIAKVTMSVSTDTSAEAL

Compound | % Displacement Protocol II [1] | % Displacement Protocol IV [2] | % Displacement Protocol I [3]
COC(=O)[C@H](NC(=O)c1nn(-c2ccc(F)cc2F)c2c1C1CCC2C1)c1ccccc1 (stereo partly drawn) [Example 319, Methyl (2R)-2-[5-(2,4-difluorophenyl)-4,5-diazatricyclo[5.2.1.0.^2,6]deca-2(6),3-dien-3-ylcarboxamido]-2-phenylethanoate] | 88.02% | 86.68% | –
COC(=O)[C@@H](NC(=O)c1nn(-c2ccc(F)cc2F)c2c1C1CCC2C1)c1ccccc1 (stereo partly drawn) [Example 301, Methyl(2S)-2-[5-(2,4-difluorophenyl)-4,5-diazatricyclo[5.2.1.0.^2,6]deca-2(6),3-dien-3-ylcarboxamido]-2-phenylethanoate] | 82.54% | 82.09% | –
O=C(NN1CCOCC1)c1nn(-c2ccc(F)cc2F)c2c1C1CCC2C1 (stereo not shown) [Example 312, 4-[5-(2,4-Difluorophenyl)-4,5-diazatricyclo[5.2.1.0^2,6]deca-2(6),3-dien-3-ylcarboxamido]morpholine] | 10.97% | 4.47% | –
COC(=O)[C@@H](NC(=O)c1nn(-c2ccc(F)cc2F)c2c1C1CC3CC(C1)CC2C3)c1ccccc1 [Example 155, Methyl(2S)-2-[7-(2,4-difluorophenyl)-6,7-diazatetracyclo[7.3.1.1^3,11.0^4,8]tetradeca-4(8),5-dien-5-ylcarboxamido]-2-phenylethanoate] | 96.65% | 72.38% | –
O=C(NCc1ccccc1)c1nn(-c2ccccc2Cl)c2c1C1CC3CC(C1)CC2C3 [Example 182, N(7)-Benzyl-5-(2-chlorophenyl)-5,6-diazatetracyclo[7.3.1.1^3,11.0^4,8]tetradeca-4(8)-6-diene-7-carboxamide] | 19.35% | 12.78% | 39.9%
O=C(NNc1ccc(Cl)cc1)c1nn(-c2ccc(Cl)cc2)c2c1C1CC3CC(C1)CC2C3 [Example 125] | 22.07% | 5.04% | 52.7%
O=C(NCc1ccc(C(F)(F)F)cc1)c1nn(-c2ccc(Cl)cc2)c2c1C1CCC2C1 (stereo not shown) [Example 227, N(3)-(4-Trifluoromethylbenzyl)-1-(4-chlorophenyl)-4,5,6,7-tetrahydro-H-4,7-methano-indazole-3-carboxamide] | 3.51% | – | 25.3%
CC1(C)C2CC[C@@](C)(C2)C1NC(=O)c1nn(-c2ccc(Cl)cc2)c2c1C1CC3CC(C1)CC2C3 (stereo partly drawn) [Example 110, N(7)-(1S,2endo-1,3,3-Trimethyl-bicyclo[2.2.1]hept-2-yl)-5-(4-chlorophenyl)-5,6-diazatetracyclo[7.3.1.1^3,11.0^4,8]tetradeca-4(8)-6-diene-7-carboxamide] | 37.69% | 60.7% | –
CC(C)(NC(=O)c1nn(-c2ccc(F)cc2F)c2c1C1CCC2(C)C1(C)C)c1ccccc1 (stereo not shown) [Example 407] | 87.28% | 88.44% | –
O=C(NC12CC3CC(CC(C3)C1)C2)c1nn(-c2ccc(F)cc2F)c2c1C1CC3CC(C1)CC2C3 [Example 144, N(7)-(Adamantan-1-yl)-5-(2,4-difluorophenyl)-5,6-diazatetracyclo[7.3.1.1^3,11.0^4,8]tetradeca-4(8)-6-diene-7-carboxamide] | 40.13% | 69.24% | –
CC1(C)[C@@H]2CC[C@@](C)(C2)[C@@H]1NC(=O)c1nn(-c2ccc(F)cc2F)c2c1C1CC3CC(C1)CC2C3 [Example 145, N(7)-(1S,2endo-1,3,3-Trimethyl-bicyclo[2.2.1]hept-2-yl)-5-(2,4-difluorophenyl)-5,6-diazatetracyclo[7.3.1.1^3,11.0^4,8]tetradeca-4(8)-6-diene-7-carboxamide] | 54.01% | 75.88% | –
O=C(Nc1ccccc1)c1nn(-c2ccccc2)c2c1C1CC3CC(C1)CC2C3 [Example 168, N(7)-Phenyl-5-phenyl-5,6-diazatetracyclo[7.3.1.1^3,11.0^4,8]tetradeca-4(8)-6-diene-7-carboxamide] | 11.47% | – | 37%
C[C@H](NC(=O)c1nn(-c2ccc(F)cc2F)c2c1C1CC3CC(C1)CC2C3)c1ccccc1 [Example 146] | 60.51% | 68.16% | –
COC(=O)[C@@H](NC(=O)c1nn(-c2ccc(F)cc2F)c2c1C1CCC2C1)c1ccc(F)cc1 (stereo partly drawn) [Example 326, Methyl (2S)-2-[5-(2,4-difluorophenyl)-4,5-diazatricyclo[5.2.1.0.^2,6]deca-2(6),3-dien-3-ylcarboxamido]-2-(4-fluorophenyl)ethanoate] | 73.99% | 99.18% | –
CN(NC(=O)c1nn(-c2ccc(Cl)cc2Cl)c2c1C1CCC2c2ccccc21)C1CCCCC1 (stereo not shown) [Example 504, N(12)-[(N′-Cyclohexyl-N′-methyl)amino]-10-(2,4-dichlorophenyl)-10,11-diazatetracyclo[6.5.2.0^2,7.0^9,13]pentadeca-2,4,6,9(13),11-pentaene-12-carboxamide] | 62.9% | – | 79.7%
CN(NC(=O)c1nn(-c2ccc(Cl)cc2)c2c1C1CC3CC(C1)CC2C3)c1ccc(Cl)cc1Cl.Cl [Example 128] | 37.28% | – | 83%
O=C(NNc1ccc(Cl)c(Cl)c1)c1nn(-c2ccc(Cl)cc2)c2c1C1CCC2C1 (stereo not shown) [Example 231, N(3)-[(3,4-Dichlorophenyl)amino]-1-(4-chlorophenyl)-4,5,6,7-tetrahydro-H-4,7-methano-indazole-3-carboxamide] | 30.79% | – | 31.9%
O=C(NC12CC3CC(CC(C3)C1)C2)c1nn(-c2ccc(F)cc2)c2c1C1CC3CC(C1)CC2C3 [Example 158, N(7)-(Adamantan-1-yl)-5-(4-fluorophenyl)-5,6-diazatetracyclo[7.3.1.1^3,11.0^4,8]tetradeca-4(8)-6-diene-7-carboxamide] | 70.12% | 95.4% | –
O=C(NCc1ccc(Cl)cc1)c1nn(-c2ccc(Cl)cc2)c2c1C1CC3CC(C1)CC2C3 [Example 112, N(7)-(4*Chlorobenzyl)-5-(4-chlorophenyl)-5,6-diazatetracyclo[7.3.1.1^3,11.0^4,8]tetradeca-4(8)-6-diene-7-carboxamide] | 25.76% | – | 59.9%
O=C(NN1CCCCC1)c1nn(-c2ccccc2)c2c1C1CC3CC(C1)CC2C3 [Example 169, N(7)-piperidino-5-phenyl-5,6-diazatetracyclo[7.3.1.1^3,11.0^4,8]tetradeca-4(8)-6-diene-7-carboxamide] | 29.65% | – | 19%
C[C@@H](NC(=O)c1nn(-c2ccc(Cl)cc2)c2c1C1CC3CC(C1)CC2C3)c1ccccc1 [Example 118] | 45.43% | 61.23% | –
COC(=O)[C@H](NC(=O)c1nn(-c2ccc(F)cc2F)c2c1C1CC3CC(C1)CC2C3)c1ccccc1 [Example 154, Methyl(2R)-2-[7-(2,4-difluorophenyl)-6,7-diazatetracyclo[7.3.1.1^3,11.0^4,8]tetradeca-4(8),5-dien-5-ylcarboxamido]-2-phenylethanoate] | 96.1% | 70.19% | –
C[C@H](NC(=O)c1n[nH]c2c1C1(c3ccc(F)cc3F)CCC2C1)c1ccccc1 (stereo partly drawn) [Example 292, N(3)-[S-(1-Phenylethyl)]-4-(2,4-difluorophenyl)-4,5,6,7-tetrahydro-1H-4,7-methano-indazole-3-carboxamide] | 69.79% | – | –
CCCCCn1nc(C(=O)NC(C)(C)c2ccccc2)c2c1C1CC3CC(CC2C3)C1 [Example 190b, N(7)-(1-Methyl-1-phenylethyl)-5-pentyl-5,6-diazatetracyclo[7.3.1.1^3,11.0^4,8]tetradeca-4(8)-6-diene-7-carboxamide] | 100% | 96.07% | –
